According to patent US9850283B2, “Macrocyclic inhibitors of the PD-1/PD-L1 and CD80(B7-1)/PD-L1 protein/protein interactions” (BRISTOL-MYERS SQUIBB COMPANY, priority 2013, dated 2017):
Like-named read-outs stand apart in the source and are kept apart here. Positions of bridges follow the written chain, without caps; N, C: chain ends. Non-standard residues stand in square brackets, D forms with d. Residues, ends and D or L forms follow the SMILES beside them. Phe(3,4-(OMe)2) = COc1ccc(C[C@H](N)C(=O)O)cc1OC; Phe(3,5-Cl2) = N[C@@H](Cc1cc(Cl)cc(Cl)c1)C(=O)O; Phe(2-Cl) = N[C@@H](Cc1ccccc1Cl)C(=O)O; Phe(3-Me) = Cc1cccc(C[C@H](N)C(=O)O)c1; Phe(4-F) = N[C@@H](Cc1ccc(F)cc1)C(=O)O; Bta = N[C@@H](Cc1csc2ccccc12)C(=O)O; Hyp = O=C(O)[C@@H]1C[C@@H](O)CN1; NMeF = CN[C@@H](Cc1ccccc1)C(=O)O; NMeNle = CCCC[C@H](NC)C(=O)O; NMeA = CN[C@@H](C)C(=O)O; Nle = CCCC[C@H](N)C(=O)O; Orn = NCCC[C@H](N)C(=O)O; Dap = NC[C@H](N)C(=O)O; Aib = CC(C)(N)C(=O)O; Sar = CNCC(=O)O

Columns and labels:
[1] = target: T1, Human PD-L1/PD-1 (Homo sapiens, UniProt Q9NZQ7); assay: HTRF PD-1-Ig/PD-L1-His binding assay (human PD-L1); details: cluster symbol; read-out: HTRF IC50 cluster
T1 construct: made in house; host or cells: HEK293T
Outline: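 HTRF read-out: Eu cryptate anti-Ig mAb 1 nM final, APC anti-His mAb 20 nM final, added over the binding reaction. Proteins were PD-1-Ig and PD-L1-His ectodomain fusions. Buffer was dPBS, 0.1% BSA, 0.05% Tween-20.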

[2] = target: T2, LK35.2-hPD-L1 cells / PE-labeled PD-1-Ig (Homo sapiens, UniProt Q9NZQ7); assay: LK35.2-hPD-L1 cell binding high-content screening assay; assay type: cell-based; details: cluster symbol, read-out: CBA IC50 cluster
T2 construct: expressed in transfected cells; host or cells: LK35.2 mouse B cell line
Outline: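 Mouse LK35.2 B cells stably over-expressing human PD-L1, cultured overnight, treated with compound plus PE-labeled human PD-1-Ig (1 nM final) in RPMI/10% FCS for 1 h at 37 °C. After washing, bound fluorescence quantified by high-content imaging.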

[3] = cell line of CBA not given (LK35.2-hPD-L1 or 293T-hPD-L1)
[4] = cell binding assay, cell line not given

T1 sequence (Q9NZQ7 with tags, fused parts or gaps): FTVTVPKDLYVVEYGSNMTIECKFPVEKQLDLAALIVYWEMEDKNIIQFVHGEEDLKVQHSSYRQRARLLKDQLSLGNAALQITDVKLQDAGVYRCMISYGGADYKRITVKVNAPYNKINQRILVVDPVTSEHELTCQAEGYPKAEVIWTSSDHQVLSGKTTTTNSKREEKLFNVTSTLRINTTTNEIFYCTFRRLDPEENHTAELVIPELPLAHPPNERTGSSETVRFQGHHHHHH
T2 sequence (Q9NZQ7 19-290): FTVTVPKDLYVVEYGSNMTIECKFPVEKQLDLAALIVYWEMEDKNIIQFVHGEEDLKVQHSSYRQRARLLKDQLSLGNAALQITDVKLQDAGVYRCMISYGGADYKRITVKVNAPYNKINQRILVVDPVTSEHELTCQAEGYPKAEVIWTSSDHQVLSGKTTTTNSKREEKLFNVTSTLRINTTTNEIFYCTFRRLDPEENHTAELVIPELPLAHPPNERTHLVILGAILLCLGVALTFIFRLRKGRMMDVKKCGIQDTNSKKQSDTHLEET

IC50 [1] | IC50 [2, 3] | IC50 [2, 4] | Structure (SMILES)
> 30.5 nM | > 74.3 nM | – | CCCC[C@H]1C(=O)N(C)[C@@H](CCCC)C(=O)N[C@@H](CCCNC(=N)N)C(=O)N[C@H](C(=O)NCC(N)=O)CSCC(=O)N[C@@H](Cc2ccccc2)C(=O)N(C)[C@@H](C)C(=O)N[C@@H](CC(N)=O)C(=O)N2CCC[C@H]2C(=O)N[C@@H](Cc2cnc[nH]2)C(=O)N[C@@H](CC(C)C)C(=O)N(C)CC(=O)N[C@@H](Cc2c[nH]c3ccccc23)C(=O)NC(C)(C)C(=O)N[C@@H](Cc2c[nH]c3ccccc23)C(=O)N1C [Example 1116] ({CH2CO}-F[NMeA]NPHL[Sar]W[Aib]W[NMeNle][NMeNle]RCG-NH2; thioether N-14)
> 30.5 nM | > 74.3 nM | – | CCCC[C@H]1C(=O)N(C)[C@@H](CCCC)C(=O)N[C@@H](CCCNC(=N)N)C(=O)N[C@H](C(=O)NCC(N)=O)CSCC(=O)N[C@@H](Cc2ccccc2)C(=O)N(C)[C@@H](C)C(=O)N[C@@H](CC(N)=O)C(=O)N2CCC[C@H]2C(=O)N[C@@H](Cc2cnc[nH]2)C(=O)N[C@@H](CC(C)C)C(=O)N(C)CC(=O)N[C@@H](Cc2cccc(C)c2)C(=O)N[C@@H](CO)C(=O)N[C@@H](Cc2c[nH]c3ccccc23)C(=O)N1C [Example 1086] ({CH2CO}-F[NMeA]NPHL[Sar][Phe(3-Me)]SW[NMeNle][NMeNle]RCG-NH2; thioether N-14)
> 30.5 nM | > 74.3 nM | – | CCCC[C@H]1C(=O)N(C)CC(=O)N[C@@H](CC(=O)O)C(=O)N[C@@H](C(C)C)C(=O)N(C)[C@@H](Cc2ccccc2)C(=O)N[C@@H](Cc2ccc(O)cc2)C(=O)N(C)CC(=O)N[C@@H](Cc2c[nH]c3ccccc23)C(=O)N[C@@H](Cc2ccc(O)cc2)C(=O)N[C@@H](CC(C)C)C(=O)N[C@H](C(=O)NCC(N)=O)CSCC(=O)N[C@@H](Cc2ccccc2Cl)C(=O)N(C)[C@@H](Cc2ccccc2)C(=O)N1C [Example 3104] ({CH2CO}-[Phe(2-Cl)][NMeF][NMeNle][Sar]DV[NMeF]Y[Sar]WYLCG-NH2; thioether N-13)
6.76 to 30.3 nM | – | 4.78 to 72.9 nM | CCCC[C@H]1C(=O)N(C)[C@@H](CCCC)C(=O)N[C@@H](CCCNC(=N)N)C(=O)N[C@H](C(=O)NCC(N)=O)CSCC(=O)N[C@@H](Cc2ccc(O)cc2)C(=O)N(C)[C@@H](C)C(=O)N[C@@H](CC(N)=O)C(=O)N2CCC[C@H]2C(=O)N[C@@H](Cc2cnc[nH]2)C(=O)N[C@@H](CCCN)C(=O)N2C[C@H](O)C[C@H]2C(=O)N[C@@H](Cc2c[nH]c3ccccc23)C(=O)N[C@@H](CO)C(=O)N[C@@H](Cc2c[nH]c3ccccc23)C(=O)N1C [Example 5023] ({CH2CO}-Y[NMeA]NPH[Orn][Hyp]WSW[NMeNle][NMeNle]RCG-NH2; thioether N-14)
6.76 to 30.3 nM | – | > 74.3 nM | CCCC[C@H]1C(=O)N(C)CC(=O)N[C@@H](CC(=O)O)C(=O)N[C@@H](C(C)C)C(=O)N(C)[C@@H](Cc2ccccc2)C(=O)N[C@@H](Cc2ccc(O)cc2)C(=O)N(C)CC(=O)N[C@@H](Cc2c[nH]c3ccccc23)C(=O)N[C@@H](Cc2ccc(O)cc2)C(=O)N[C@@H](CCC(=O)O)C(=O)N[C@H](C(=O)NCC(N)=O)CSCC(=O)N[C@@H](Cc2ccccc2)C(=O)N(C)[C@@H](Cc2ccccc2)C(=O)N1C [Example 3509] (HELM PEPTIDE1{[O=C(C[*:3])[*:2]].F.[meF].[CCCC[C@@H](C(=O)[*:2])N(C)[*:1]].[Sar].D.V.[meF].Y.[Sar].W.Y.E.C.G.[am]}$PEPTIDE1,PEPTIDE1,1:R3-14:R3$$$V2.0)
0.385 to 6.74 nM | – | 0.158 to 4.71 nM | CCCC[C@H]1C(=O)N(C)[C@@H](CCCC)C(=O)N[C@@H](CN)C(=O)N[C@H](C(=O)NCC(N)=O)CSCC(=O)N[C@@H](Cc2ccc(O)cc2)C(=O)N(C)[C@@H](C)C(=O)N[C@@H](CC(=O)O)C(=O)N2CCC[C@H]2C(=O)N[C@@H](Cc2c[nH]cn2)C(=O)N[C@@H](CCC(N)=O)C(=O)N2C[C@H](O)C[C@H]2C(=O)N[C@@H](Cc2c[nH]c3ccccc23)C(=O)N[C@@H](CO)C(=O)N[C@@H](Cc2c[nH]c3ccccc23)C(=O)N1C [Example 5101] ({CH2CO}-Y[NMeA]DPHQ[Hyp]WSW[NMeNle][NMeNle][Dap]CG-NH2; thioether N-14)
0.385 to 6.74 nM | 0.158 to 4.71 nM | – | CCCC[C@H]1C(=O)N(C)[C@@H](CCCC)C(=O)N[C@@H](C)C(=O)N[C@H](C(=O)NCC(N)=O)CSCC(=O)N[C@@H](Cc2ccc(O)cc2)C(=O)N(C)[C@@H](C)C(=O)N[C@@H](CC(N)=O)C(=O)N2CCC[C@H]2C(=O)N[C@@H](Cc2cnc[nH]2)C(=O)N[C@@H](CCC(=O)O)C(=O)N2C[C@H](O)C[C@H]2C(=O)N[C@@H](Cc2c[nH]c3ccccc23)C(=O)N[C@@H](CO)C(=O)N[C@@H](Cc2c[nH]c3ccccc23)C(=O)N1C [Example 1168]
0.385 to 6.74 nM | – | > 74.3 nM | CCCC[C@H]1C(=O)N(C)[C@@H](CCCC)C(=O)N[C@@H](CCCNC(=N)N)C(=O)N[C@H](C(=O)NCC(N)=O)CSCC(=O)N[C@@H](Cc2ccc(F)cc2)C(=O)N(C)[C@@H](C)C(=O)N[C@@H](CC(N)=O)C(=O)N2CCC[C@H]2C(=O)N[C@@H](CN)C(=O)N[C@@H](CC(C)C)C(=O)N2C[C@H](O)C[C@H]2C(=O)N[C@@H](Cc2c[nH]c3ccccc23)C(=O)N[C@@H](CO)C(=O)N[C@@H](Cc2c[nH]c3ccccc23)C(=O)N1C [Example 7048] ({CH2CO}-[Phe(4-F)][NMeA]NP[Dap]L[Hyp]WSW[NMeNle][NMeNle]RCG-NH2; thioether N-14)

Further lines, the compound ahead of its results:

Structure (SMILES) | IC50 [1] | IC50 [2, 3] | IC50 [2, 4]
CCCC[C@H]1C(=O)N(C)[C@@H](Cc2ccccc2)C(=O)N[C@@H](CCCNC(=N)N)C(=O)N[C@H](C(=O)NCC(N)=O)CSCC(=O)N[C@@H](Cc2ccccc2)C(=O)N(C)[C@@H](C)C(=O)N[C@@H](CC(N)=O)C(=O)N2CCC[C@H]2C(=O)N[C@@H](Cc2cnc[nH]2)C(=O)N[C@@H](CC(C)C)C(=O)N(C)CC(=O)N[C@@H](Cc2c[nH]c3ccccc23)C(=O)N[C@@H](CO)C(=O)N[C@@H](Cc2c[nH]c3ccccc23)C(=O)N1C [Example 1003] (HELM PEPTIDE1{[O=C(C[*:3])[*:2]].F.[meA].N.P.H.L.[Sar].W.S.W.[CCCC[C@@H](C(=O)[*:2])N(C)[*:1]].[meF].R.C.G.[am]}$PEPTIDE1,PEPTIDE1,1:R3-15:R3$$$V2.0) | > 30.5 nM | > 74.3 nM | –
CCCC[C@H]1C(=O)N(C)CC(=O)N[C@@H](CC(=O)O)C(=O)N[C@@H](C(C)C)C(=O)N(C)[C@@H](Cc2ccccc2)C(=O)N[C@@H](Cc2ccc(O)cc2)C(=O)N(C)CC(=O)N[C@@H](Cc2c[nH]c3ccccc23)C(=O)N[C@@H](Cc2ccc(O)cc2)C(=O)N[C@@H](CC(C)C)C(=O)N[C@H](C(=O)NCC(N)=O)CSCC(=O)N[C@@H](Cc2cc(Cl)cc(Cl)c2)C(=O)N(C)[C@@H](Cc2ccccc2)C(=O)N1C [Example 3179] ({CH2CO}-[Phe(3,5-Cl2)][NMeF][NMeNle][Sar]DV[NMeF]Y[Sar]WYLCG-NH2; thioether N-13) | > 30.5 nM | 4.78 to 72.9 nM | –
CCCC[C@H]1C(=O)N(C)CC(=O)N[C@@H](CC(=O)O)C(=O)N[C@@H](C(C)C)C(=O)N(C)[C@@H](Cc2ccccc2)C(=O)N[C@@H](Cc2ccc(OC)c(OC)c2)C(=O)N(C)CC(=O)N[C@@H](Cc2c[nH]c3ccccc23)C(=O)N[C@@H](Cc2ccc(O)cc2)C(=O)N[C@@H](CC(C)C)C(=O)N[C@H](C(=O)NCC(N)=O)CSCC(=O)N[C@@H](Cc2ccccc2)C(=O)N(C)[C@@H](Cc2ccccc2)C(=O)N1C [Example 3533] ({CH2CO}-F[NMeF][NMeNle][Sar]DV[NMeF][Phe(3,4-(OMe)2)][Sar]WYLCG-NH2; thioether N-13) | 6.76 to 30.3 nM | – | 4.78 to 72.9 nM
CCCC[C@H]1C(=O)N(C)[C@@H](CCCC)C(=O)N[C@@H](CCCNC(=N)N)C(=O)N[C@H](C(=O)NCC(N)=O)CSCC(=O)N[C@@H](Cc2ccc(O)cc2)C(=O)N(C)[C@@H](C)C(=O)N[C@@H](CC(N)=O)C(=O)N2CCC[C@H]2C(=O)N[C@@H](CN)C(=O)N[C@@H](CCC(=O)O)C(=O)N2CCC[C@H]2C(=O)N[C@@H](Cc2c[nH]c3ccccc23)C(=O)N[C@@H](CO)C(=O)N[C@@H](Cc2csc3ccccc23)C(=O)N1C [Example 1127] ({CH2CO}-Y[NMeA]NP[Dap]EPWS[Bta][NMeNle][NMeNle]RCG-NH2; thioether N-14) | 0.385 to 6.74 nM | 0.158 to 4.71 nM | –
CCCC[C@@H]1NC(=O)[C@H](CCCC)N(C)C(=O)[C@H](CCCC)N(C)C(=O)[C@H](Cc2c[nH]c3ccccc23)NC(=O)[C@H](CO)NC(=O)[C@H](Cc2c[nH]c3ccccc23)NC(=O)CN(C)C(=O)[C@H](CC(C)C)NC(=O)[C@H](Cc2cnc[nH]2)NC(=O)[C@@H]2CCCN2C(=O)[C@H](CC(N)=O)NC(=O)[C@H](C)N(C)C(=O)[C@H](Cc2ccccc2)NC(=O)CSC[C@@H](C(=O)NCC(N)=O)NC1=O [Example 1071] ({CH2CO}-F[NMeA]NPHL[Sar]WSW[NMeNle][NMeNle][Nle]CG-NH2; thioether N-14) | > 30.5 nM | > 74.3 nM | –
CCCC[C@H]1C(=O)N(C)[C@@H](CCCC)C(=O)N[C@@H](CCCNC(=N)N)C(=O)N[C@H](C(=O)NCC(N)=O)CSCC(=O)N[C@@H](Cc2cccc(C)c2)C(=O)N(C)[C@@H](C)C(=O)N[C@@H](CC(N)=O)C(=O)N2CCC[C@H]2C(=O)N[C@@H](Cc2cnc[nH]2)C(=O)N[C@@H](CC(C)C)C(=O)N(C)CC(=O)N[C@@H](Cc2c[nH]c3ccccc23)C(=O)N[C@@H](CO)C(=O)N[C@@H](Cc2c[nH]c3ccccc23)C(=O)N1C [Example 1097] ({CH2CO}-[Phe(3-Me)][NMeA]NPHL[Sar]WSW[NMeNle][NMeNle]RCG-NH2; thioether N-14) | 6.76 to 30.3 nM | 4.78 to 72.9 nM | –
